Key:
[1] = Absorbance properties of halogenated xanthenes (λmax, α); format: physicochemical
Excerpt: Certain general properties of this class of agents are discussed in further detail in U.S. Ser. No. 09/130,041, filed on Aug. 6, 1998, U.S. Ser. No. 09/184,388, filed on Nov. 2, 1998, and U.S. Ser. No. 09/216,787, filed on Dec. 21, 1998, which are herein incorporated by reference in their entirety.

[2] = Photochemical quantum yields (triplet, singlet oxygen); format: physicochemical

α [1]	λmax (nm) H2O [1]	λmax (nm) EtOH [1]	φ (singlet oxygen) EtOH [2]	φ (singlet oxygen) H2O [2]	λmax (nm) MeOH [1]	φ (singlet oxygen) MeOH [2]	φ (triplet) MeOH [2]	Compound
39000 L/cm/mol	522 nm	–	–	–	–	–	–	O=C(O)c1ccccc1-c1c2cc([N+](=O)[O-])c(=O)c(Br)c-2oc2c(Br)c(O)c([N+](=O)[O-])cc12 [Eosin B]
–	510 nm	520 nm	0.05	0.05	–	–	–	O=C1OC2(c3ccccc31)c1cc(Cl)c(O)c(Cl)c1Oc1c2cc(Cl)c(O)c1Cl [2′,4′,5′,7′-Tetrachlorofluorescein]
58000 L/cm/mol	506 nm	513 nm	0.48	0.33	–	–	–	Diiodofluorescein
14000 L/cm/mol	504 nm	510 nm	0.42	0.32	–	–	–	Dibromofluorescein
29000 L/cm/mol	515 nm	–	–	–	–	–	–	O=C1OC2(c3ccc(O)cc3Oc3cc(O)ccc32)c2c(Cl)c(Cl)c(Cl)c(Cl)c21 [4,5,6,7-Tetrachlorofluorescein]
64000 L/cm/mol	490 nm	499 nm	0.03	0.03	492 nm	0.09	0.03	O=C1OC2(c3ccc(O)cc3Oc3cc(O)ccc32)c2ccccc21 [Fluorescein]
–	–	563 nm	–	–	–	0.74	–	CCN(CC)CC.CCOC(=O)c1c(Cl)c(Cl)c(Cl)c(Cl)c1-c1c2cc(I)c(=O)c(I)c-2oc2c(I)c(O)c(I)cc12 [Rose Bengal Derivative I]
14000 L/cm/mol	–	–	–	–	450 nm	–	–	O=C1OC2(c3ccccc31)c1ccc(O)c(Br)c1Oc1c2ccc(O)c1Br [Solvent Red 72]
–	502 nm	511 nm	0.07	0.04	–	–	–	O=C1OC2(c3ccccc31)c1ccc(O)c(Cl)c1Oc1c2ccc(O)c1Cl [4′,5′-Dichlorofluorescein]
–	–	–	–	–	–	0.72	–	CCN(CC)CC.CCN(CC)CC.O=C(O)c1c(Cl)c(Cl)c(Cl)c(Cl)c1-c1c2cc(I)c(=O)c(I)c-2oc2c(I)c(O)c(I)cc12 [Rose Bengal Derivative II]
91000 L/cm/mol	517 nm	523 nm	0.57	0.32	527 nm	0.39	0.28	O=C([O-])c1ccccc1-c1c2cc(Br)c(=O)c(Br)c-2oc2c(Br)c([O-])c(Br)cc12.[Na+].[Na+] [Eosin Y]
11000 L/cm/mol	–	532 nm	–	–	–	–	–	CCOC(=O)c1ccccc1-c1c2cc(Br)c(=O)c(Br)c-2oc2c(Br)c([O-])c(Br)cc12.[K+] [Ethyl Eosin]
–	502 nm	511 nm	0.07	0.04	–	–	–	O=C1OC2(c3cc(Cl)c(O)cc3Oc3cc(O)c(Cl)cc32)c2ccccc21 [2′,7′-Dichlorofluorescein]
